Laboratory results: PubChem BioAssay (NCI)
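Five compound concentrations were applied to cells in 96-well plates for 48 hours; endpoints were derived by simple linear interpolation of the resulting dose-response curve. TGI denotes the concentration required for complete inhibition of growth.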

How the values were obtained:
Assay in all cases: NCI-60 cell line screen, 48 h
[1] = tested on: RPMI-8226 leukemia
[2] = tested on: OVCAR-5 ovarian
[3] = tested on: SK-MEL-2 melanoma
[4] = tested on: KM12 colon
[5] = tested on: M19-MEL melanoma
[6] = tested on: A498 renal
[7] = tested on: SF-295 CNS
[8] = tested on: NCI-H522 lung
[9] = tested on: UO-31 renal
[10] = tested on: UACC-257 melanoma
[11] = tested on: HOP-92 NSCLC
[12] = tested on: U251 CNS
[13] = tested on: K-562 leukemia
[14] = tested on: SF-268 CNS
[15] = tested on: 786-0 renal
[16] = tested on: OVCAR-3 ovarian
[17] = tested on: M14 melanoma
[18] = tested on: CCRF-CEM leukemia
[19] = tested on: LXFL 529 NSCLC
[20] = tested on: SF-539 CNS
[21] = tested on: OVCAR-4 ovarian
[22] = tested on: COLO 205 colon
[23] = tested on: UACC-62 melanoma
[24] = tested on: HL-60(TB) leukemia
[25] = tested on: RXF 393 renal
[26] = tested on: MALME-3M melanoma
[27] = tested on: KM20L2 colon
[28] = tested on: SNB-75 CNS
[29] = tested on: NCI-H23 lung
[30] = tested on: NCI-H460 lung
[31] = tested on: SNB-19 CNS
[32] = tested on: SK-MEL-28 melanoma
[33] = tested on: ACHN renal
[34] = tested on: HT29 colon
[35] = tested on: IGROV1 ovarian
[36] = tested on: SK-OV-3 ovarian
[37] = tested on: SNB-78 CNS
[38] = tested on: HOP-62 NSCLC
[39] = tested on: SR leukemia
[40] = tested on: DLD-1 colon
[41] = tested on: NCI-H226 lung
[42] = tested on: OVCAR-8 ovarian
[43] = tested on: SW-620 colon
[44] = tested on: LOX IMVI melanoma
[45] = tested on: A549 NSCLC
[46] = tested on: TK-10 renal
[47] = tested on: HCT-116 colon
[48] = tested on: MOLT-4 leukemia

In the case of `CCN(CC)CCN1C(=O)CC2[C@@H]3CCc4cc(OC)ccc4C3CC[C@]2(C)C1=O` (stereo partly specified), the TGI [1] was 66 µM, the TGI [2] was > 100 µM and the TGI [3] was 37.4 µM. For the same molecule, the TGI [4] was > 100 µM, the TGI [5] was 35.8 µM and the TGI [6] was > 100 µM. For the same molecule, the TGI [7] was 37.6 µM, the TGI [8] was 53.7 µM and the TGI [9] was 64.6 µM. For the same molecule, the TGI [10] was 30.2 µM, the TGI [11] was > 100 µM and the TGI [12] was > 100 µM. The TGI [13] was 36.1 µM, the TGI [14] was > 100 µM and the TGI [15] was 31.1 µM. For the same molecule, the TGI [16] was > 100 µM, the TGI [17] was 33.1 µM and the TGI [18] was 39.2 µM. For the same molecule, the TGI [19] was 30.9 µM, the TGI [20] was 19.5 µM and the TGI [21] was > 100 µM. The TGI [22] was 39.1 µM, the TGI [23] was 36 µM and the TGI [24] was 36.7 µM. For the same molecule, the TGI [25] was 92.3 µM, the TGI [26] was 33.4 µM and the TGI [27] was 46 µM. For the same molecule, the TGI [28] was > 100 µM, the TGI [29] was > 100 µM and the TGI [30] was > 100 µM. The TGI [31] was > 100 µM, the TGI [32] was 33.1 µM and the TGI [33] was > 100 µM. The TGI [34] was 41.4 µM, the TGI [35] was > 100 µM and the TGI [36] was > 100 µM. For the same molecule, the TGI [37] was > 100 µM and the TGI [38] was 54.2 µM.
With `S=c1[nH]nc(-c2ccccc2)n1/N=C\c1ccc(-c2ccc(Cl)cc2)o1` the TGI [1] was > 100 µM, the TGI [2] was > 100 µM and the TGI [4] was > 100 µM. For the same molecule, the TGI [39] was > 100 µM, the TGI [40] was > 100 µM and the TGI [5] was > 100 µM. For the same molecule, the TGI [7] was > 100 µM, the TGI [8] was > 100 µM and the TGI [9] was > 100 µM. For the same molecule, the TGI [10] was > 100 µM, the TGI [11] was > 100 µM and the TGI [41] was > 100 µM. The TGI [12] was > 100 µM, the TGI [13] was > 100 µM and the TGI [42] was > 100 µM. For the same molecule, the TGI [14] was > 100 µM, the TGI [15] was > 100 µM and the TGI [16] was > 100 µM. For the same molecule, the TGI [17] was > 100 µM, the TGI [43] was > 100 µM and the TGI [19] was > 100 µM. The TGI [20] was > 100 µM, the TGI [21] was > 100 µM and the TGI [22] was > 100 µM. For the same molecule, the TGI [23] was > 100 µM, the TGI [24] was > 100 µM and the TGI [27] was > 100 µM. The TGI [28] was > 100 µM, the TGI [29] was > 100 µM and the TGI [44] was > 100 µM. The TGI [45] was > 100 µM, the TGI [30] was > 100 µM and the TGI [31] was > 100 µM. For the same molecule, the TGI [32] was > 100 µM, the TGI [33] was > 100 µM and the TGI [46] was > 100 µM. The TGI [47] was > 100 µM, the TGI [48] was > 100 µM and the TGI [34] was > 100 µM. For the same molecule, the TGI [35] was > 100 µM, the TGI [36] was > 100 µM and the TGI [37] was > 100 µM. The TGI [38] was > 100 µM.
